{"source": "patent US8664272B2", "about": "“Composition and methods for the treatment of myelodysplastic syndrome and acute myeloid leukemia” (Temple University—Of the Commonwealth System of Higher …, priority 2006, dated 2014)", "key": {"[1]": {"test_system": "myelodysplastic syndrome patients", "details": "cited from earlier work"}, "HL-60 cell line": {"test_system": "HL-60 cell line", "details": "cited from earlier work"}, "HL-60 cells": {"test_system": "HL-60 cells", "test": "Cytotoxicity of drug combinations towards HL-60 cells (WST-1 assay, median-effect analysis)", "format": "cell-based, human", "details": "single agent, concentrations higher than 500 nM, 72 h", "description": "Human promyelocytic leukemia cell line HL-60 were obtained from American Type Culture Collection. The cells were maintained in RPMI 1640 medium supplemented with 10% FBS, penicillin, (50 U/mL), streptomycin, (50 μg/mL). Cell cultures were maintained at 37° C. in 5% CO2 humidified atmosphere. Cells were counted in a hemocytometer, using Trypan blue staining as an indicator of viability.\nThe test compound, or combination of compounds, was added in 50 μL volume into flat-bottom 96-well plates. Control cultures received the same amount of medium without the test compound. HL-60 cells (1×10^6 cells/mL) were suspended in growth medium and dispensed in 50 μL aliquots into the well containing the compound. The plates were incubated at 37° C. (5% CO2) for 72 h. Cytotoxicity was then determined using the WST-1 assay. In the WST-1 assay cell viability is determined by incubating the cells for a further period of 0.5 to 4 h in the presence of the tetrazolium salt 4-(3-(4-iodophenyl)-2-(4-nitrophenyl)-2H-5-tetrazolio]-1,3-benzene disulfonate. In the presence of viable cells, the compound is reduced by mitochondrial dehydrogenases to a fluorescent product. The absorbance was measured against a background control without cell, in a microtiter plate reader (Bio-Tek Instruments, Elx 800) at 450 nm with a reference wavelength of 630 nm. […]"}, "[2]": {"details": "subcutaneous 75 mg/m^2/day for 7 days every 4 weeks, phase 3"}}}
{"smiles": "Nc1ncn([C@@H]2O[C@H](CO)[C@@H](O)[C@H]2O)c(=O)n1", "note": "[Azacitidine, 5-azacytidine]", "values": [{"measurement": "significant side-effects", "setting": "[1]; clinical trials", "value": "nausea, anemia, thrombocytopenia, vomiting, pyrexia, leukopenia, diarrhea, fatigue, injection site erythema, constipation, neutropenia, and ecchymosis"}, {"measurement": "patients responded completely", "setting": "[1]; [2]", "value": 5, "unit": "%"}, {"measurement": "patients responded partially", "setting": "[1]; [2]", "value": 10, "unit": "%"}, {"measurement": "response rate", "setting": "[1]; [2]", "value": 15, "unit": "%"}, {"measurement": "apoptosis", "setting": "HL-60 cell line", "value": "induces apoptosis"}]}
{"smiles": "COc1cc(OC)c(/C=C/S(=O)(=O)Cc2ccc(OC)c(NCC(=O)[O-])c2)c(OC)c1.[Na+]", "note": "[Compound A, (E)-2-(5-((2,4,6-trimethoxystyrylsulfonyl)methyl)-2-methoxyphenylamino)acetic acid sodium salt]", "values": [{"measurement": "cell death", "setting": "HL-60 cells", "value": "virtually complete cell death"}]}
